Reference: patent publication US20070191435A1, “HYDROCHLORIDE SALT OF 5-[4-[2-(N-METHYL-N-(2-PYRIDYL)AMINO)ETHOXY]BENZYL]THIAZOLIDINE-2,4-DIONE” (SmithKline Beecham p.l.c., priority 2000, published 2007)

Tests used:
[1] = Solid state stability of the drug substance, assayed by HPLC; type: physicochemical; settings: 1 month
Description: The solid state stability of the drug substance was determined by storing approximately 1.0 g of the material in a glass bottle at a) 40° C./75% Relative Humidity (RH), open exposure, for 1 month and b) at 50° C., closed, for 1 month. […] Solubility of the Hydrochloride

[2] = Solubility in water, visual, confirmed by HPLC assay of a saturated solution; type: physicochemical; settings: thermodynamic from solid
Description: The visual solubility was confirmed by an HPLC assay of a saturated solution.

CN(CCOc1ccc(CC2SC(=O)NC2=O)cc1)c1ccccn1.Cl (centres unmarked) [Hydrochloride, 5-[4-[2-(N-methyl-N-(2-pyridyl)amino)ethoxy]benzyl]thiazolidine-2,4-dione hydrochloride]
HPLC assay for final content ([1]; 40° C./75% RH, open exposure): 100 % initial | degradation products (HPLC) ([1]; 40° C./75% RH, open exposure): No significant degradation observed | HPLC assay for final content ([1]; 50° C., closed): 101 % initial | degradation products (HPLC) ([1]; 50° C., closed): No significant degradation observed | solubility [2]: 25 mg/mL
